# Results: US5374623A, “Cysteine protease inhibitors effective for in vivo use” (Prototek, Inc., priority 1992, dated 1994)
# Tests used:
# [1] = biological target: T1, Cathepsin B purified from human liver (Homo sapiens, UniProt P07858); assay: Cathepsin B inhibition, potency relative to Z-Phe-Ala-CH2 F; type: biochemical; conditions: substrate Z-Leu-Arg-Arg-AFC, pH 6.2, inhibitor added 2 min before substrate
# T1 construct: Cathepsin B. purified from human liver; purchased Enzyme Systems Products (Dublin, Calif.); host or cells: human liver (tissue-purified)
# Description: Cathepsin B. purified from human liver, was obtained from Enzyme Systems Products (Dublin, Calif.). The activity of the enzyme used in this Example was 50 mU per ml at 30° C. in 50 mm sodium phosphate buffer, pH 6.2, 5 mm DTT, 2 mm EDTA, with Z-Leu-Arg-Arg-7-amino-4-trifluoromethyl courmarin (Z-Leu-Arg-Arg-AFC) as substrate.
# Cathepsin B assays were done under the following conditions: Five μl of enzyme stock solution was preincubated with 435 μl of phosphate buffer for 30 minutes to activate the enzyme. Nine μl of 20 mm stock substrate solution (in dimethylformamide) were added and mixed with the activated enzyme. Activity was followed by the release of free AFC as monitored by a Perkin-Elmer LS-5B spectrofluorometer (excitation=400 nm, emission=505 nm).
# The inhibitors described herein were prepared in 20 mm stock solutions in DMF. Five μl aliquots of each inhibitor were added to the enzyme 2 min before the substrate was added to the mix. Potency was determined relative to the activity of a standard cathepsin B inhibitor, Z-Phe-Ala-CH2 F (relative potency of 1.0).
# [2] = tested on: bone resorption; assay: In vivo bone resorption by urinary 14C-tetracycline excretion in rats
# Description: Treatment of Osteo Arthritis with Mu-Phe-HPhe-O-Ph. The skeletons of young growing rats were radioactively labelled by injections with ^14 C-tetracycline over a 10 day period. The amount of bone resorption was then determined each day as the amount of radioactivity excreted in the urine. After 10 days of control excretion, test compounds were administered for three days subcutaneously and their effects on the daily excretion of tetracycline were determined. Tested compounds were dissolved in DMSO/PEG at a concentration of 25 mg/ml and were injected once per day subcutaneously in a volume of 2 ml/kg. Treatment of Osteo Arthritis with Mu-Leu-HPhe-O-Ph. The skeletons of young growing rats were radioactively labelled by injections with ^14 C-tetracycline over a 10 day period. The amount of bone resorption was then determined each day as the amount of radioactivity excreted in the urine. After 10 days of control excretion, test compounds were administered for three days subcutaneously and their effects on the daily excretion of tetracycline were determined. Tested compounds were dissolved in DMSO/PEG at a concentration of 25 mg/ml and were injected once per day subcutaneously in a volume of 2 ml/kg.
# [3] = tested on: Soluble extracts of P. vinckei; assay: Proteolytic activity of P. vinckei soluble extracts, substrate Z-Phe-Arg-AFC; type: biochemical; conditions: read-out: IC50, proteolytic activity of P. vinckei extract
# Description: Treatment of Malaria with Mu-Phe-HPhe-O-Ph. Soluble extracts of P. falciparum and P. vinckei were prepared and proteolytic activity was assayed with fluorogenic peptide substrate Z-Phe-Arg-AFC. The activity of control samples was compared with activities in the presence of multiple concentrations of Mu-Phe-HPhe-O-Ph. The concentrations at which activity was inhibited by 50% (IC50) was calculated.
# Treatment of Malaria with Mu-Leu-HPhe-O-Ph. Soluble extracts of P. falciparum and P. vinckei were prepared and proteolytic activity was assayed with fluorogenic peptide substrate Z-Phe-Arg-AFC. The activity of control samples was compared with activities in the presence of multiple concentrations of Mu-Leu-HPhe-O-Phe. The concentration at which activity was inhibited by 50%. (IC50) was calculated.
# Treatment of Malaria with Mu-Phe-Arg(NO2)-O-Ph. Soluble extracts of P. falciparum and P. vinckei were prepared and proteolytic activity was assayed with fluorogenic peptide substrate Z-Phe-Arg-AFC. The activity of control samples was compared with activities in the presence of multiple concentrations of Mu-Phe-Arg(NO2)-O-Ph. The concentration at which activity was inhibited by 50% (IC50) was calculated.
# Treatment of Malaria with Mu-Tyr(OCH3)2 -HPhe-O-Ph. Soluble extracts of P. falciparum and P. vinckei were prepared and proteolytic activity was assayed with fluorogenic peptide substrate Z-Phe-Arg-AFC. The activity of control samples as compared with activities in the presence of multiple concentrations of Mu-Tyr(OCH3)2 -HPhe-O-Ph. The concentration at which activity was inhibited by 50% (IC50) was calculated.
# [4] = tested on: 45Ca2+-labelled bones (calvaria) of neonatal mice; assay: Parathyroid hormone-stimulated 45Ca2+ release from cultured mouse calvaria; type: cell-based; conditions: for inhibition of the rate of 45Ca2+-release: 1 μm inhibitor; for inhibition of the rate of 45Ca2+-release / additional inhibition of the rate of 45Ca2+-release: 24 hour period, PTH-stimulated; for additional inhibition of the rate of 45Ca2+-release: 100 μm inhibitor
# Description: (§1) Treatment of Osteo Arthritis with Mu-Phe-HPhe-O-Ph. ^45 Ca^2+ -labelled bones (calvaria) of neonatal mice were maintained in culture. The effect of the test compound on the rate of parathyroid hormone-stimulated ^45 Ca^2+ release was measured over a 24 hour period. An inhibitor of bone resorption (at maximal concentrations) would be expected to inhibit this rate by approximately 70%. The nature of the residual, uninhibitable ^45 Ca^2+ -release is not known but could represent chemical exchange of ^45 Ca^2+ with the medium. Mu-Phe-HPhe-O-Ph was dissolved in dimethylsulphoxide which was present in the incubation at concentrations <0.1%.
# as §1, with “Mu-Leu-HPhe-O-Ph.” for “Mu-Phe-HPhe-O-Ph.”, “Mu-Leu-HPhe-O-Ph” for “Mu-Phe-HPhe-O-Ph”
# as §1, with “Mu-Tyr(OMe)-HPhe-O-Ph.” for “Mu-Phe-HPhe-O-Ph.”, “Mu-Tyr(OMe)-HPhe-O-Ph” for “Mu-Phe-HPhe-O-Ph”
# as §1, with “Z-Phe-Ala-O-Ph.” for “Mu-Phe-HPhe-O-Ph.”, “Z-Phe-Ala-O-Ph” for “Mu-Phe-HPhe-O-Ph”
# as §1, with “Mu-Tyr(OMe)-HPhe-O-Ph.” for “Mu-Phe-HPhe-O-Ph.”, “labelled” for “-labelled”, “Mu-Tyr(OMe)-HPhe-O-Ph” for “Mu-Phe-HPhe-O-Ph”
# [5] = biological target: Soluble extracts of P. falciparum (cysteine proteinase); assay: Proteolytic activity of P. falciparum soluble extracts, substrate Z-Phe-Arg-AFC; type: biochemical; conditions: read-out: IC50, proteolytic activity of P. falciparum extract
# Description: Soluble extracts of P. falciparum and P. vinckei were prepared and proteolytic activity was assayed with fluorogenic peptide substrate Z-Phe-Arg-AFC. […] The concentrations at which activity was inhibited by 50% (IC50) was calculated.
# Soluble extracts of P. falciparum and P. vinckei were prepared and proteolytic activity was assayed with fluorogenic peptide substrate Z-Phe-Arg-AFC. […] The concentration at which activity was inhibited by 50%. (IC50) was calculated.
# Soluble extracts of P. falciparum and P. vinckei were prepared and proteolytic activity was assayed with fluorogenic peptide substrate Z-Phe-Arg-AFC. […] The concentration at which activity was inhibited by 50% (IC50) was calculated.
# [6] = tested on: adjuvant-induced arthritis; assay: Adjuvant-induced arthritis in rats, compound in ground diet (Example 15); type: in vivo; conditions: day 0 to day 32
# Description: Treatment of Rheumatoid Arthritis with Mu-Tyr(OMe)-HPhe-O-Ph. Rats were injected with adjuvant on day 0 and were treated with Mu-Tyr(OMe)-HPhe-O-Ph in ground diet from the time of adjuvant injection until sacrifice at day 32. Over the course of the disease, animals were evaluated in terms of a mean clinical score, a derived series of clinically observed parameters normalized to facilitate graphical presentation. Mean paw volumes were also measured using normalized units throughout the course of the disease. At the end of the study, the animal groups were sacrificed and evaluated by X-ray analysis.
compound,measurement,setting,value
"C[C@H](NC(=O)[C@H](Cc1ccccc1)NC(=O)OCc1ccccc1)C(=O)CF [Z-Phe-Ala-CH2 F, reference compound]",relative potency of cathepsin B inhibition (Z-Phe-Ala-CH2 F = 1.0),[1],1.0
"COC(=O)c1ccccc1OCC(=O)C(C)(C)NC(=O)C(Cc1ccccc1)NC(=O)N1CCOCC1 (stereo not shown) [Example 9, Morpholine carbonyl phenylalanyl 2-aminoisobutyric methyl phenoxy ketone]",relative potency of cathepsin B inhibition (Z-Phe-Ala-CH2 F = 1.0),[1],0.2
CC(C)C[C@H](NC(=O)N1CCOCC1)C(=O)N[C@@H](CCc1ccccc1)C(=O)COc1ccccc1 [Mu-Leu-HPhe-O-Ph],inhibition of bone resorption in vivo as measured by tetracycline excretion,"[2]; subcutaneous once per day for three days, 25 mg/ml in DMSO/PEG, 2 ml/kg",nearly as great as that of a maximal dose of calcitonin
same,time of maximum effect after dosing commenced,"[2]; subcutaneous once per day, 25 mg/ml, 2 ml/kg",24 h
same,findings at the sites of injection at end of experiment,"[2]; subcutaneous, DMSO/PEG, three days, histology: inflammation of subcutaneous fat, tissue necrosis",lesions were visible at the sites of injection
same,IC50,[3],15 nM
same,inhibition of the rate of 45Ca2+-release,[4],50%
same,additional inhibition of the rate of 45Ca2+-release,[4],20%
same,IC50,[5],0.42 nM
NC(=NCCCC(NC(=O)C(Cc1ccccc1)NC(=O)N1CCOCC1)C(=O)COc1ccccc1)N[N+](=O)[O-] (stereo not shown) [Mu-Phe-Arg(NO2)-O-Ph],IC50,[3],110 nM
same,IC50,[5],2.4 nM
t-Butyl carbamyl-L-arginyl-(2-Carboxymethyl) phenoxymethyl ketone [Example 3],relative potency of cathepsin B inhibition (Z-Phe-Ala-CH2 F = 1.0),[1],five
COc1ccc(C[C@H](NC(=O)N2CCOCC2)C(=O)N[C@@H](CCc2ccccc2)C(=O)COc2ccccc2)cc1 [Mu-Tyr(OMe)-HPhe-O-Ph],inhibition of the rate of 45Ca2+-release,[4],50%
same,additional inhibition of the rate of 45Ca2+-release,[4],20%
same,IC50,"[4]; initial phase of inhibition, read-out: IC50 for inhibition of resorption in mouse calvaria",~40 nM
same,mean clinical scores vs untreated animals,[6],significantly lower
same,mean paw volumes vs untreated animals,[6],significantly reduced
CC(NC(=O)C(Cc1ccccc1)NC(=O)OCc1ccccc1)C(=O)COc1ccccc1 (stereo not drawn) [Z-Phe-Ala-O-Ph],inhibition of the rate of 45Ca2+-release,[4],50%
same,additional inhibition of the rate of 45Ca2+-release,[4],20%
